# Measured values as given in patent US8343458B2, “Probes for in vivo targeting of active cysteine proteases” (The Board of Trustees of the Leland Stanford Junior …, priority 2008, dated 2013).
# “And” between values parts separate entries of the source, which are not always exact repeats. Identical values can stand only once.
# Legend:
# [1] = tested on: C2C12/Ras tumors; assay: Biodistribution in nude mice bearing subcutaneous C2C12/Ras tumors; format: in vivo, mouse; details: for Biodistribution: Blood / Biodistribution: Bone / Biodistribution: Brain / Biodistribution: Heart / Biodistribution: Intestines / Biodistribution: Kidney / Biodistribution: Liver / Biodistribution: Lung / Biodistribution: Muscle / Biodistribution: Pancreas / Biodistribution: Spleen / Biodistribution: Stomach / Biodistribution: Tumor / Tumor/Blood ratio / Tumor/Muscle ratio: C2C12/Ras tumor mice, i.v. 740 kBq
# Procedure: (§1) All animal studies were carried out in compliance with Federal and local institutional rules for the conduct of animal experimentation. Female athymic nude mice (nu/nu) were obtained from Charles River Laboratories (Boston, Mass.) at 7-8 weeks old and kept under sterile conditions. The nude mice were inoculated subcutaneously in the right shoulder with 2×10^6 cultured C2C12/Ras cells or 5×10^6 MDA-MB-435 cells. When the tumors reach 0.5-0.8 cm in diameter, the tumor bearing mice were subjected to in vivo biodistribution studies. For biodistribution studies, the mice bearing C2C12/Ras or MDA-MB-435 tumor xenografts (n=3 for each group) were injected with 740 KBq (20 μCi) of ^64Cu labeled tracer through the tail vein and sacrificed at different time points post injection (p.i.). Tumor and normal tissues of interest were removed and weighed, and their radioactivity was measured in a gamma-counter. The radioactivity uptake in the tumor and normal tissues was expressed as a percentage of the injected radioactive dose per gram of tissue (% ID/g).
# (§2) We next examined the overall biodistribution of ^64Cu-Z-FK(DOTA)-AOMK using athymic nude mice carrying subcutaneously grafted C2C12/Ras and MDA-MB-435 tumors. […] Importantly, we observed rapid accumulation of radioactivity in the C2C12/Ras tumors expressing high levels of cysteine cathepsins (0.35±0.13% ID/g at 0.5 h p.i.). This activity remained in the tumors resulting in an uptake of 0.27±0.05% ID/g at 24 h p.i. For the MDA-MB-435 tumors with lower cysteine cathepsin expression, tumor uptake was approximately 2 fold lower at each time point relative to the C2C12/Ras tumors (P<0.05). […] The highest radioactivity was found in the liver due to high endogenous expression of various cysteine cathepsins. Moderate renal accumulation was also observed at all times in both tumor models.
# (§3) Data are expressed as the percentage administered activity (injected dose) per gram of tissue (% ID/g) after intravenous injection of 740 kBq (20 μCi) of ^64Cu-Z-FK(DOTA)-AOMK at 0.5, 2, and 24 h pi (n=3). Significant lower tumor uptake and tumor/blood, tumor/muscle ratio in MDA-MB-435 breast cancer (P<0.05) were observed.
# [2] = tested on: MDA-MB-435 tumors; assay: Biodistribution in nude mice bearing subcutaneous MDA-MB-435 tumors; format: in vivo, mouse; details: for Biodistribution: Blood / Biodistribution: Bone / Biodistribution: Brain / Biodistribution: Heart / Biodistribution: Intestines / Biodistribution: Kidney / Biodistribution: Liver / Biodistribution: Lung / Biodistribution: Muscle / Biodistribution: Pancreas / Biodistribution: Spleen / Biodistribution: Stomach / Biodistribution: Tumor / Tumor/Blood ratio / Tumor/Muscle ratio: MDA-MB-435 tumor mice, i.v. 740 kBq
# Procedure: as §1, §2, §3
smiles,measurement,setting,value
Cc1cccc(C)c1C(=O)OCC(=O)[C@H](CCCCNC(=O)CN1CCN(CC(=O)[O-])CCN(CC(=O)O)CCN(CC(=O)[O-])CC1)NC(=O)[C@H](Cc1ccccc1)NC(=O)OCc1ccccc1.[64Cu+2] [^64Cu-Z-FK(DOTA)-AOMK],Biodistribution: Blood,[1]; 0.5 h p.i.,0.24 ± 0.07 % ID/g
same,Biodistribution: Bone,[1]; 0.5 h p.i.,0.09 ± 0.02 % ID/g
same,Biodistribution: Brain,[1]; 0.5 h p.i.,0.04 ± 0.03 % ID/g
same,Biodistribution: Heart,[1]; 0.5 h p.i.,0.25 ± 0.02 % ID/g
same,Biodistribution: Intestines,[1]; 0.5 h p.i.,1.84 ± 0.57 % ID/g
same,Biodistribution: Kidney,[1]; 0.5 h p.i.,0.74 ± 0.29 % ID/g
same,Biodistribution: Liver,[1]; 0.5 h p.i.,3.71 ± 1.04 % ID/g
same,Biodistribution: Lung,[1]; 0.5 h p.i.,0.50 ± 0.17 % ID/g
same,Biodistribution: Muscle,[1]; 0.5 h p.i.,0.06 ± 0.01 % ID/g
same,Biodistribution: Pancreas,[1]; 0.5 h p.i.,0.25 ± 0.22 % ID/g
same,Biodistribution: Spleen,[1]; 0.5 h p.i.,0.35 ± 0.24 % ID/g
same,Biodistribution: Stomach,[1]; 0.5 h p.i.,0.63 ± 0.69 % ID/g
same,Biodistribution: Tumor,[1]; 0.5 h p.i.,0.35±0.13 % ID/g
same,Tumor/Blood ratio,[1]; 0.5 h p.i.,1.41 ± 0.32
same,Tumor/Muscle ratio,[1]; 0.5 h p.i.,5.24 ± 1.35
same,Biodistribution: Blood,[1]; 2 h p.i.,0.24 ± 0.03 % ID/g
same,Biodistribution: Bone,[1]; 2 h p.i.,0.10 ± 0.01 % ID/g
same,Biodistribution: Brain,[1]; 2 h p.i.,0.02 ± 0.00 % ID/g
same,Biodistribution: Heart,[1]; 2 h p.i.,0.30 ± 0.08 % ID/g
same,Biodistribution: Intestines,[1]; 2 h p.i.,1.38 ± 0.54 % ID/g
same,Biodistribution: Kidney,[1]; 2 h p.i.,0.67 ± 0.19 % ID/g
same,Biodistribution: Liver,[1]; 2 h p.i.,3.59 ± 1.01 % ID/g
same,Biodistribution: Lung,[1]; 2 h p.i.,0.59 ± 0.22 % ID/g
same,Biodistribution: Muscle,[1]; 2 h p.i.,0.05 ± 0.01 % ID/g
same,Biodistribution: Pancreas,[1]; 2 h p.i.,0.18 ± 0.08 % ID/g
same,Biodistribution: Spleen,[1]; 2 h p.i.,0.24 ± 0.04 % ID/g
same,Biodistribution: Stomach,[1]; 2 h p.i.,0.32 ± 0.06 % ID/g
same,Biodistribution: Tumor,[1]; 2 h p.i.,0.30 ± 0.03 % ID/g
same,Tumor/Blood ratio,[1]; 2 h p.i.,1.25 and 1.25 ± 0.21
same,Tumor/Muscle ratio,[1]; 2 h p.i.,5.64 and 5.64 ± 0.98
same,Biodistribution: Blood,[1]; 24 h p.i.,0.28 ± 0.10 % ID/g
same,Biodistribution: Bone,[1]; 24 h p.i.,0.14 ± 0.10 % ID/g
same,Biodistribution: Brain,[1]; 24 h p.i.,0.05 ± 0.01 % ID/g
same,Biodistribution: Heart,[1]; 24 h p.i.,0.46 ± 0.07 % ID/g
same,Biodistribution: Intestines,[1]; 24 h p.i.,0.46 ± 0.04 % ID/g
same,Biodistribution: Kidney,[1]; 24 h p.i.,0.72 ± 0.05 % ID/g
same,Biodistribution: Liver,[1]; 24 h p.i.,1.86 ± 0.57 % ID/g
same,Biodistribution: Lung,[1]; 24 h p.i.,0.65 ± 0.15 % ID/g
same,Biodistribution: Muscle,[1]; 24 h p.i.,0.06 ± 0.02 % ID/g
same,Biodistribution: Pancreas,[1]; 24 h p.i.,0.21 ± 0.06 % ID/g
same,Biodistribution: Spleen,[1]; 24 h p.i.,0.42 ± 0.06 % ID/g
same,Biodistribution: Stomach,[1]; 24 h p.i.,0.27 ± 0.11 % ID/g
same,Biodistribution: Tumor,[1]; 24 h p.i.,0.27±0.05 % ID/g
same,Tumor/Blood ratio,[1]; 24 h p.i.,0.99 ± 0.24
same,Tumor/Muscle ratio,[1]; 24 h p.i.,4.07 ± 1.13
same,Blood clearance,"[1]; both tumor models, nude mice, i.v.",rapid clearance in blood
same,Biodistribution: Blood,[2]; 2 h p.i.,0.29 ± 0.01 % ID/g
same,Biodistribution: Bone,[2]; 2 h p.i.,0.18 ± 0.06 % ID/g
same,Biodistribution: Brain,[2]; 2 h p.i.,0.04 ± 0.01 % ID/g
same,Biodistribution: Heart,[2]; 2 h p.i.,0.43 ± 0.09 % ID/g
same,Biodistribution: Intestines,[2]; 2 h p.i.,1.95 ± 1.24 % ID/g
same,Biodistribution: Kidney,[2]; 2 h p.i.,1.11 ± 0.05 % ID/g
same,Biodistribution: Liver,[2]; 2 h p.i.,2.64 ± 0.08 % ID/g
same,Biodistribution: Lung,[2]; 2 h p.i.,0.72 ± 0.08 % ID/g
same,Biodistribution: Muscle,[2]; 2 h p.i.,0.06 ± 0.00 % ID/g
same,Biodistribution: Pancreas,[2]; 2 h p.i.,0.25 ± 0.05 % ID/g
same,Biodistribution: Spleen,[2]; 2 h p.i.,0.31 ± 0.05 % ID/g
same,Biodistribution: Stomach,[2]; 2 h p.i.,0.45 ± 0.07 % ID/g
same,Biodistribution: Tumor,[2]; 2 h p.i.,0.18 ± 0.00 % ID/g
same,Tumor/Blood ratio,[2]; 2 h p.i.,0.61 and 0.61 ± 0.02
same,Tumor/Muscle ratio,[2]; 2 h p.i.,3.03 and 3.03 ± 0.20
same,Biodistribution: Blood,[2]; 24 h p.i.,0.28 ± 0.13 % ID/g
same,Biodistribution: Bone,[2]; 24 h p.i.,0.20 ± 0.20 % ID/g
same,Biodistribution: Brain,[2]; 24 h p.i.,0.05 ± 0.01 % ID/g
same,Biodistribution: Heart,[2]; 24 h p.i.,0.42 ± 0.15 % ID/g
same,Biodistribution: Intestines,[2]; 24 h p.i.,0.35 ± 0.08 % ID/g
same,Biodistribution: Kidney,[2]; 24 h p.i.,0.63 ± 0.08 % ID/g
same,Biodistribution: Liver,[2]; 24 h p.i.,1.37 ± 0.19 % ID/g
same,Biodistribution: Lung,[2]; 24 h p.i.,0.47 ± 0.08 % ID/g
same,Biodistribution: Muscle,[2]; 24 h p.i.,0.06 ± 0.02 % ID/g
same,Biodistribution: Pancreas,[2]; 24 h p.i.,0.18 ± 0.11 % ID/g
same,Biodistribution: Spleen,[2]; 24 h p.i.,0.31 ± 0.21 % ID/g
same,Biodistribution: Stomach,[2]; 24 h p.i.,0.34 ± 0.29 % ID/g
same,Biodistribution: Tumor,[2]; 24 h p.i.,0.14 ± 0.05 % ID/g
same,Tumor/Blood ratio,[2]; 24 h p.i.,0.54 ± 0.12
same,Tumor/Muscle ratio,[2]; 24 h p.i.,2.21 ± 0.34
same,"Tumor uptake in MDA-MB-435 tumors, fold lower relative to C2C12/Ras tumors","[2]; at each time point (2 h, 24 h), P<0.05",approximately 2 fold
